Data taken from patent US8986677B2, “Therapeutic compositions and methods” (Pop Test Cortisol LLC, priority 2012, dated 2015).

Experiments:
[1] = test system: organotypic hippocampal slice cultures, CA1 region pyramidal cells; assay: Ethanol withdrawal toxicity (propidium iodide uptake) in organotypic hippocampal slice cultures; assay type: cell-based
Text: (FIG. 2A). […] Co-exposure to the selective glucocorticoid receptor antagonist ORG 34517 with ethanol and corticosterone prevented this withdrawal toxicity. Representative PI images above, (FIG. 2B). Results shown in graph form. *=P<0.05 vs control; **=P<0.05 vs EtOH WD+CORT.
Corticosterone's exacerbation of ethanol withdrawal toxicity is blocked by […] coadministration. […] (FIG. 2). […] Co-exposure to the selective glucocorticoid receptor antagonist ORG 34517 with ethanol and corticosterone prevented this withdrawal toxicity. Representative PI images above, graphed below. *=P<0.05 vs control; **=P<0.05 vs EtOH WD+CORT.

glucocorticoid receptor = molecular target: T1, glucocorticoid receptor (Homo sapiens, UniProt P04150); settings: cited from earlier work
T1 sequence (P04150 1-777): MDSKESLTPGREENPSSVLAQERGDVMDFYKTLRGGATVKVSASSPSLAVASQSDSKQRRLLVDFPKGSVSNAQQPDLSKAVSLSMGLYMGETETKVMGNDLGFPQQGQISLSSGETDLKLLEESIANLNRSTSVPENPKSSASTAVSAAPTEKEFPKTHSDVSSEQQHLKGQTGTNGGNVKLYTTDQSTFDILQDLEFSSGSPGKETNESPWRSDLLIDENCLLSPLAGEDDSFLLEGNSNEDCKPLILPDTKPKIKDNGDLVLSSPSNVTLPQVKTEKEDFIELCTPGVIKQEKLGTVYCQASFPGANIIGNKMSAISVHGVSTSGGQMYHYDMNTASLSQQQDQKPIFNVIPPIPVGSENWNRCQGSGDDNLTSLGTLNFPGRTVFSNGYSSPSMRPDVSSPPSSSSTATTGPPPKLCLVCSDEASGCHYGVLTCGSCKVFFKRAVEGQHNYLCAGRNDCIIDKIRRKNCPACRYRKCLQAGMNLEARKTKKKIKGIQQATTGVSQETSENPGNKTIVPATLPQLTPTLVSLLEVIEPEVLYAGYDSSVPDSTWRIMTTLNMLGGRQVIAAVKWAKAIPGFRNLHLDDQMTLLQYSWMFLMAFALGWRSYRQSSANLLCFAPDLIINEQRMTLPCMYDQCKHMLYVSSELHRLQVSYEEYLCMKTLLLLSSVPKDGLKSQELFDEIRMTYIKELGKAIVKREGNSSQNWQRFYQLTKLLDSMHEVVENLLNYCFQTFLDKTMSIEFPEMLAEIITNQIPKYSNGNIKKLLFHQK

estrogen receptor = molecular target: T2, estrogen receptor (Homo sapiens, UniProt P03372); settings: cited from earlier work
T2 sequence (P03372 1-595): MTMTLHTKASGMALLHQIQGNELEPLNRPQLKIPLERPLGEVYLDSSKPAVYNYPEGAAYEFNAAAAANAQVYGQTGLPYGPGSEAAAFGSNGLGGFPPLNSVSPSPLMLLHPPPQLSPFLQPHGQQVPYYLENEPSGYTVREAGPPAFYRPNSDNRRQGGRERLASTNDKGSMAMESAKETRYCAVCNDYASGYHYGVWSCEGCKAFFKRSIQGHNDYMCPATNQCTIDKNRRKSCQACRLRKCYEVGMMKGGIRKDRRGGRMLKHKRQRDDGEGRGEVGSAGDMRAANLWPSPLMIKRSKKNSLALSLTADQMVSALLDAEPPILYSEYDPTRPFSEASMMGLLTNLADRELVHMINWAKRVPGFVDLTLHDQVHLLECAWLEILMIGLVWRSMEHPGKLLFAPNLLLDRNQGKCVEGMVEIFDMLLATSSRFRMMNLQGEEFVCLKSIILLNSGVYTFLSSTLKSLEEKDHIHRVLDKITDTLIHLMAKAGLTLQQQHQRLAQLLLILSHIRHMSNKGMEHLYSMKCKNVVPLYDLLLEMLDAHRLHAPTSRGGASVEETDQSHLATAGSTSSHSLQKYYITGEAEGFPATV

progesterone receptor = molecular target: T3, progesterone receptor (Homo sapiens, UniProt P06401); settings: cited from earlier work
T3 sequence (P06401 1-933): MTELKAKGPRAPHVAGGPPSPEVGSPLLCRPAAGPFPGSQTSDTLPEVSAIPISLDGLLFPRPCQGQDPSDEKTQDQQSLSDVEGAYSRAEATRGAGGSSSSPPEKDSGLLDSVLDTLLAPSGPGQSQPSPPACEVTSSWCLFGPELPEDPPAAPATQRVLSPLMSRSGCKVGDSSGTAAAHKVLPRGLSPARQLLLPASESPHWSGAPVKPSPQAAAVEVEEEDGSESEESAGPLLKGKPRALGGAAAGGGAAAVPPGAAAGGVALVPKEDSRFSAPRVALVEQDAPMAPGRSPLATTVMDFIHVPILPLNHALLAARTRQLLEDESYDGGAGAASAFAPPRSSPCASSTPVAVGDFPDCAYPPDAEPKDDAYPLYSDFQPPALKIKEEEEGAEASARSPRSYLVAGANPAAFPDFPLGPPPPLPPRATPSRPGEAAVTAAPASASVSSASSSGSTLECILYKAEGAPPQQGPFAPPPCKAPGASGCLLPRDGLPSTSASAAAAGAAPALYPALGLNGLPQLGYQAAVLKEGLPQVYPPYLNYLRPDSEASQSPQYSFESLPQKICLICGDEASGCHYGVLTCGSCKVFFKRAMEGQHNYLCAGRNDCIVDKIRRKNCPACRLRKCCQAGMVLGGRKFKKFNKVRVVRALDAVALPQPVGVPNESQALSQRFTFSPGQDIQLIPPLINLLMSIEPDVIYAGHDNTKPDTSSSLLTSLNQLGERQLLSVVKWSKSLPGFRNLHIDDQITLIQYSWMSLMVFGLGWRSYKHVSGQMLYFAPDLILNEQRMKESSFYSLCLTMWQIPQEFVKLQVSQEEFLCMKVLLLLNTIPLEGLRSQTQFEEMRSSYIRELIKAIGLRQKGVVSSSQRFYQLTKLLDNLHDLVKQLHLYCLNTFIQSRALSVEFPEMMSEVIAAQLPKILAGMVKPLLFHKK

[2] = all phase I and phase II clinical trials performed with the compound; cited from earlier work

SMILES: CC#C[C@]1(O)CC[C@H]2[C@@H]3CCC4=CC(=O)CCC4=C3[C@@H](c3ccc4c(c3)OCO4)C[C@@]21C [ORG 34517, (11β,17β)-11-(1,3-benzodioxol-5-yl)-17-hydroxy-17-(1-propynyl)estra-4,9-dien-3-one]
- ethanol withdrawal toxicity (propidium iodide uptake, CA1 region) ([1]; co-exposure with ethanol (50 mM) and corticosterone (1 μM), 1 day of ethanol withdrawal, P<0.05 vs EtOH WD+CORT): prevented
- behavioral symptoms of the ethanol withdrawal syndrome (adult male rats; 20 mg/kg s.c. once daily immediately prior to binge ethanol (i.g.) at 0800 hrs on 4 consecutive days, adult male rats, P<0.001 vs EtOH WD): significantly reduced
- reductions in whole body tremor and wet shakes (adult male rats; 20 mg/kg s.c. once daily prior to binge ethanol, 4 days, adult male rats): most evident
- behavior of ethanol-naïve rats (adult male rats; rat, in vivo): did not alter behavior in any manner
- glucocorticoid receptor binding affinity (glucocorticoid receptor): high
- cross-binding / affinity for estrogen receptor (estrogen receptor): without significant cross-binding
- cross-binding / affinity for progesterone receptor (progesterone receptor): without significant cross-binding
- significant toxicities and side effects [2]: none were identified

SMILES: C[C@]12C[C@H](O)[C@H]3[C@@H](CCC4=CC(=O)CC[C@@]43C)[C@@H]1CC[C@@H]2C(=O)CO [corticosterone]
- toxicity (propidium iodide uptake) in CA1 region pyramidal cells ([1]; corticosterone 1 μM with ethanol 50 mM, then 1 day of ethanol withdrawal in the presence of corticosterone): significant toxicity
- propidium iodide uptake, exposure alone ([1]; corticosterone alone): did not alter

SMILES: CCO [ethanol]
- peak blood ethanol levels (adult male rats; male, rat, in vivo, 4 days): 180.27-103.5
